From PubChem BioAssay (NCI)
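How tested: cells in 96-well plates exposed to compound for 48 hours at five concentrations. GI50 = concentration required for 50% inhibition of growth. At the TGI there is no net growth.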

Assays:
Assay in all cases: DTP human tumour cell line panel, 48 h
HOP-92 NSCLC = test system: HOP-92 NSCLC
MDA-MB-231 breast = test system: MDA-MB-231 breast
TK-10 renal = test system: TK-10 renal
SN12C renal = test system: SN12C renal
OVCAR-3 ovarian = test system: OVCAR-3 ovarian
MDA-MB-468 breast = test system: MDA-MB-468 breast
IGROV1 ovarian = test system: IGROV1 ovarian
HS 578T breast = test system: HS 578T breast
DU-145 prostate = test system: DU-145 prostate
MOLT-4 leukemia = test system: MOLT-4 leukemia
SK-OV-3 ovarian = test system: SK-OV-3 ovarian
OVCAR-5 ovarian = test system: OVCAR-5 ovarian
BT-549 breast = test system: BT-549 breast
UO-31 renal = test system: UO-31 renal
HT29 colon = test system: HT29 colon
HCC-2998 colon = test system: HCC-2998 colon
HL-60(TB) leukemia = test system: HL-60(TB) leukemia
HCT-116 colon = test system: HCT-116 colon
K-562 leukemia = test system: K-562 leukemia
NCI-H23 lung = test system: NCI-H23 lung
SK-MEL-28 melanoma = test system: SK-MEL-28 melanoma
KM12 colon = test system: KM12 colon
PC-3 prostate = test system: PC-3 prostate
CAKI-1 renal = test system: CAKI-1 renal
T-47D breast = test system: T-47D breast
UACC-62 melanoma = test system: UACC-62 melanoma
NCI/ADR-RES ovarian = test system: NCI/ADR-RES ovarian
MCF7 breast = test system: MCF7 breast
NCI-H460 lung = test system: NCI-H460 lung
HCT-15 colon = test system: HCT-15 colon

CCN1C(=O)N(CC)C2NNC(Sc3c(C(=O)O)c4ccccc4n(CCC(C)C)c3=O)=NC21 (centres undefined)
GI50 (HOP-92 NSCLC): 16.5 µM | TGI (HOP-92 NSCLC): 47.4 µM | GI50 (MDA-MB-231 breast): 3.69 µM | TGI (MDA-MB-231 breast): 15.7 µM | GI50 (TK-10 renal): 17.5 µM | TGI (TK-10 renal): 63.8 µM | GI50 (SN12C renal): 4.09 µM | TGI (SN12C renal): 18.2 µM | GI50 (OVCAR-3 ovarian): 5 µM | TGI (OVCAR-3 ovarian): 21.3 µM | GI50 (MDA-MB-468 breast): 0.386 µM | TGI (MDA-MB-468 breast): 3.33 µM | GI50 (IGROV1 ovarian): 3.06 µM | TGI (IGROV1 ovarian): 18.1 µM | GI50 (HS 578T breast): 3.37 µM | TGI (HS 578T breast): 31 µM | GI50 (DU-145 prostate): 5.64 µM | TGI (DU-145 prostate): 65.7 µM | GI50 (MOLT-4 leukemia): 4.79 µM | TGI (MOLT-4 leukemia): > 100 µM | GI50 (SK-OV-3 ovarian): 7.58 µM | TGI (SK-OV-3 ovarian): 69.1 µM | GI50 (OVCAR-5 ovarian): 3.06 µM | TGI (OVCAR-5 ovarian): 17.5 µM | GI50 (BT-549 breast): 35.8 µM | TGI (BT-549 breast): 91.4 µM | GI50 (UO-31 renal): 4.07 µM | TGI (UO-31 renal): 22.5 µM | GI50 (HT29 colon): 3.33 µM | TGI (HT29 colon): 13.3 µM | GI50 (HCC-2998 colon): 2.41 µM | TGI (HCC-2998 colon): 7.91 µM | GI50 (HL-60(TB) leukemia): 3.12 µM | TGI (HL-60(TB) leukemia): 34.1 µM | GI50 (HCT-116 colon): 4.12 µM | TGI (HCT-116 colon): > 100 µM | GI50 (K-562 leukemia): 3.69 µM | TGI (K-562 leukemia): > 100 µM | GI50 (NCI-H23 lung): 4.34 µM | TGI (NCI-H23 lung): 16.6 µM | GI50 (SK-MEL-28 melanoma): 9.69 µM | TGI (SK-MEL-28 melanoma): 31.4 µM | GI50 (KM12 colon): 4.12 µM | TGI (KM12 colon): 53.5 µM | GI50 (PC-3 prostate): 6.19 µM | TGI (PC-3 prostate): > 100 µM | GI50 (CAKI-1 renal): 5.21 µM | TGI (CAKI-1 renal): 19.8 µM | GI50 (T-47D breast): 20.5 µM | TGI (T-47D breast): > 100 µM | GI50 (UACC-62 melanoma): 4.11 µM | TGI (UACC-62 melanoma): 19.8 µM | GI50 (NCI/ADR-RES ovarian): 2.25 µM | TGI (NCI/ADR-RES ovarian): 5.8 µM | GI50 (MCF7 breast): 0.878 µM | TGI (MCF7 breast): 15.1 µM | GI50 (NCI-H460 lung): 3.43 µM | TGI (NCI-H460 lung): 13.3 µM | GI50 (HCT-15 colon): 2.75 µM
